Literature values, collected in paper PMC6582641 (Organic & biomolecular chemistry, 2019).

Key:
[1] = tested on: mice
[2] = tested on: TRPC4; conditions: read-out: IC50 TRPC4
[3] = tested on: TRPC6
[4] = tested on: TRPM (melastatin) 2
[5] = tested on: TRPV (vanilloid) 4
[6] = tested on: TRPC5; conditions: read-out: IC50 towards TRPC5
[7] = tested on: TRPC3
[8] = tested on: TRPV (vanilloid) 1
[9] = tested on: TRPA (ankyrin) 1
[10] = tested on: TRPM (melastatin) 8

| IC50 [2] [nM] | binding activity toward TRPC6 [3] | binding activity toward TRPM2 [4] | binding activity toward TRPV4 [5] | IC50 [6] [nM] | binding activity toward TRPC3 [7] | binding activity toward TRPV1 [8] | binding activity toward TRPA1 [9] | binding activity toward TRPM8 [10] | SMILES | anxiolytic and antidepressant effects [1] |
| --- | --- | --- | --- | --- | --- | --- | --- | --- | --- | --- |
|  |  |  |  |  |  |  |  |  | Cn1c(=O)n(CCCO)c(=O)c2c1nc(Oc1cccc(Cl)c1)n2Cc1ccc(Cl)cc1 [HC070, 7-(4-Chlorobenzyl)-8-(3-Chlorophenoxy)-1-(3-Hydroxypropyl)-3-Methyl-3,7-Dihydro-1H-Purine-2,6-Dione] | produces anxiolytic and antidepressant effects in mice |
| 32.5 | no binding activities | no binding activities | no binding activities | 6.2 | no binding activities | no binding activities | no binding activities | no binding activities | Cn1c(=O)n(CCCO)c(=O)c2c1nc(Oc1cccc(OC(F)(F)F)c1)n2Cc1ccc(Cl)cc1 [HC608, 7-(4-Chlorobenzyl)-1-(3-Hydroxypropyl)-3-Methyl-8-(3-(Trifluoromethoxy)Phenoxy)-3,7-Dihydro-1H-Purine-2,6-Dione] |  |
